Assay results reported in ChEMBL document CHEMBL1140186, “Hunter-killer peptide (HKP) for targeted therapy” (2008).
Active and inactive are the calls of the source. The rule behind the calls is not given here. Bridge positions count the residues as written; N and C are the ends. Square brackets hold non-standard residues; d marks the D form. Peptide text beside a SMILES is read from it.

How the values were obtained:
[1] = system: Mus musculus; assay: Reduction in epididymal fat pad size in sc dosed high fat diet fed mouse after 4 weeks relative to control; assay type: functional; set-up: scale not given: the % may be the effect or the level left
[2] = system: Mus musculus; assay: Induction of weight loss in sc dosed high fat diet fed mouse after 4 weeks; assay type: functional
[3] = system: MDA-MB-435; assay: Antitumor activity against human MDA-MB-435 cells xenografted mouse assessed as survival after 120 days; assay type: functional
[4] = species on record: Mus musculus; assay: Increase in survival of transgenic mouse prostate adenocarcinoma model after 6 to 8 weeks; assay type: functional, organism-based; conditions: Prostate gland

Q: Which results are given for CC(C)C[C@@H](NC(=O)[C@@H](CCCCN)NC(=O)CNC(=O)CNC(=O)[C@@H]1CSSC[C@H](N)C(=O)N[C@@H](CCCCN)C(=O)NCC(=O)NCC(=O)N[C@@H](CCCNC(=N)N)C(=O)N[C@@H](C)C(=O)N[C@@H](CCCCN)C(=O)N[C@@H](CC(=O)O)C(=O)N1)C(=O)N[C@H](C)C(=O)N[C@H](CCCCN)C(=O)N[C@H](CC(C)C)C(=O)N[C@H](C)C(=O)N[C@H](CCCCN)C(=O)N[C@H](CCCCN)C(=O)N[C@H](CC(C)C)C(=O)N[C@H](C)C(=O)N[C@H](CCCCN)C(=O)N[C@H](CC(C)C)C(=O)N[C@H](C)C(=O)N[C@H](CCCCN)C(=O)O (H-CKGGRAKDCGG[dK][dL][dA][dK][dL][dA][dK][dK][dL][dA][dK][dL][dA][dK]-OH; disulfide 1-9)?
A: Activity [1]: >70%; Activity [2]: 30%

Q: CC(C)C[C@@H](NC(=O)[C@@H](CCCCN)NC(=O)CNC(=O)CNC(=O)[C@@H]1CSSC[C@H](N)C(=O)N[C@@H](CC(N)=O)C(=O)NCC(=O)N[C@@H](CCCNC(=N)N)C(=O)N1)C(=O)N[C@H](C)C(=O)N[C@H](CCCCN)C(=O)N[C@H](CC(C)C)C(=O)N[C@H](C)C(=O)N[C@H](CCCCN)C(=O)N[C@H](CCCCN)C(=O)N[C@H](CC(C)C)C(=O)N[C@H](C)C(=O)N[C@H](CCCCN)C(=O)N[C@H](CC(C)C)C(=O)N[C@H](C)C(=O)N[C@H](CCCCN)C(=O)O (H-CNGRCGG[dK][dL][dA][dK][dL][dA][dK][dK][dL][dA][dK][dL][dA][dK]-OH; disulfide 1-5) was tested. Which Survival [3] did it give?
A: 60%

Q: CC[C@H](C)[C@H](NC(=O)[C@H](CO)NC(=O)[C@H](CCSC)NC(=O)[C@@H](N)CO)C(=O)N[C@@H](C)C(=O)N[C@@H](CCCNC(=N)N)C(=O)N[C@@H](CC(C)C)C(=O)NCC(=O)NCC(=O)N[C@H](CCCCN)C(=O)N[C@H](CC(C)C)C(=O)N[C@H](C)C(=O)N[C@H](CCCCN)C(=O)N[C@H](CC(C)C)C(=O)N[C@H](C)C(=O)N[C@H](CCCCN)C(=O)N[C@H](CCCCN)C(=O)N[C@H](CC(C)C)C(=O)N[C@H](C)C(=O)N[C@H](CCCCN)C(=O)N[C@H](CC(C)C)C(=O)N[C@H](C)C(=O)N[C@H](CCCCN)C(=O)O (H-SMSIARLGG[dK][dL][dA][dK][dL][dA][dK][dK][dL][dA][dK][dL][dA][dK]-OH) was tested. Which Activity [4] did it give?
A: Active
